# From article PMC7979488 (ChemMedChem, 2020)
# Like-named read-outs stand apart in the source and are kept apart here.
# Experiments:
# [1] = tested on: SARS-CoV-2; type: cell-based
# [2] = tested on: SARS-CoV-2; type: cell-based; conditions: A549/ACE2 cells
# [3] = Vero E6 cells, tested range 80 nM to 10 μM, two repeats
compound,measurement,setting,value
"O=C[C@H](C[C@@H]1CCNC1=O)NC(=O)[C@H](CC1CCCCC1)NC(=O)c1cc2ccccc2[nH]1 [11a, reference compound]",concentration at which SARS-CoV-2-induced CPE was completely abolished,[1]; [3],10 µM
O=C[C@H](C[C@@H]1CCNC1=O)NC(=O)[C@H](Cc1ccccc1)NC(=O)/C=C/c1ccc(Cl)cc1F [MPI2],concentration at which SARS-CoV-2-induced CPE was completely abolished,[1]; [3],10 µM
CC(C)C[C@H](NC(=O)[C@@H](NC(=O)OCc1ccccc1)C(C)C)C(=O)N[C@H](C=O)C[C@@H]1CCNC1=O [MPI3],complete prevention of CPE (in words),"[1]; Vero E6 cells, tested range 80 nM to 10 μM",not able to completely prevent CPE at all tested concentrations
CC(C)[C@H](NC(=O)OCc1ccccc1)C(=O)N[C@@H](CC1CCCCC1)C(=O)N[C@H](C=O)C[C@@H]1CCNC1=O [MPI5],concentration at which SARS-CoV-2-induced CPE was completely abolished,[1]; [3],5 µM
same,concentration for complete prevention of SARS-CoV-2-induced CPE,[2]; as stated in abstract,0.16 to 0.31 µM
same,concentration for complete abolition of CPE,[2]; tested range 80 nM to 10 μM,160 to 310 nM
CC(OC(C)(C)C)[C@H](NC(=O)OCc1ccccc1)C(=O)N[C@@H](Cc1ccccc1)C(=O)N[C@H](C=O)C[C@@H]1CCNC1=O (stereo partly drawn) [MPI7],concentration at which SARS-CoV-2-induced CPE was completely abolished,[1]; [3],2.5 to 5 µM
same,complete abolition of CPE / potency (in words),[2]; tested range 80 nM to 10 μM,not able to completely abolish CPE at all tested conditions
GC376 [reference compound],concentration at which SARS-CoV-2-induced CPE was completely abolished,[1],10 µM
